Measured values from US4686283A, “Analogs of transforming and epidermal growth factor fragments for therapy and diagnosis” (Syntex (U.S.A.) Inc., priority 1985, dated 1987).
Where a SMILES comes first, the peptide text is derived from it. Bridges are numbered along the chain shown (N, C = ends).

Legend:
[1] = system: rabbit anti-TGF α-KLH IgG; assay: Competitive radioimmunoassay: iodinated rabbit anti-TGF α-KLH IgG preincubated with inhibitor, then bound to BSA-peptide complex coated wells; assay type: binding; conditions: no inhibitor 8400 ± 600 cpm
Description: A. Rabbit IgG antibodies to the compound [drawing 24] (anti-TGF α-KLH), as prepared in accordance with Example 7, were iodinated by the chloramine-T method. To 1 mg anti-TGF α-KLH antibody in 0.2M phosphate buffer (pH 7.6) was added 20 μl of a 2 mg/ml solution of chloramine-T and 1mCiNa^125 I for 3 minutes at room temperature. 1 mg KI was added and excess free iodine removed by chromatography on a Sephadex G-50 column. The specific activity of the antibodies varied between 200,000 and 400,000 counts per minute (cpm)/μg protein. Flexible polyvinylchloride plates were coated with a 1 mg/ml solution of BSA-peptide complex (prepared in accordance with Example 6A) in phosphate buffered saline (PBS) for 16 hours at 4° C. Plates were countered with a solution containing BSA and 1% Bovine gamma globulin.
These solutions were then added to the coated wells for an additional 2 hours at 37° C. After several washes with PBS containing 0.1% BSA, individual wells were cut apart and counted in a gamma counter.

[2] = molecular target: T1, EGF receptors (Mus musculus, UniProt Q01279); assay: Competitive antagonism of 125I-EGF binding to LE II cells (Scatchard plots); design: species or system Murine; conditions: in the presence of 20 μg/ml peptide, 4° C.; for apparent association constant for EGF: lower = more effective competitor
T1 construct: endogenous in cells; host or cells: LE II murine lung endothelial cells
Description: Murine lung endothelial cells identified as LE II were grown to confluence in 24 well cluster dishes in Dulbecco's minimal essential medium (DMEM) containing 10% fetal calf serum. Cells were washed twice with DMEM containing 1% bovine serum albumin and buffered at pH 7.4 with 50 mM Hepes buffer (DMEM-BSA). […] At the end of the incubation period, cells were washed three times with DMEM-BSA, lysed in 0.1N sodium hydroxide and cell-associated radioactivity was determined in a gamma counter.

[3] = system: LE II cells; assay: Inhibition of EGF-induced cell proliferation ([3H]-methylthymidine incorporation); assay type: cell-based, Murine; conditions: induced by 2 × 10^-9 M EGF; for % Enhancement of thymidine incorporation: control 380 ± 20
Description: (§1) LE II cells were grown to confluence in 48 well cluster dishes and starved for two days in DMEM containing 0.5% fetal calf serum.
(§2) The percent enhancement of thymidine incorporation was used as the measure of cell proliferation. The lower the percentage of thymidine incorporation, the lower the rate of cell proliferation. Inhibition of EGF-induced cell proliferation by the foregoing compounds is reflected in Table II. Table III gives the inhibition of TGFα-induced cell proliferation.

[4] = system: LE II cells; assay: Inhibition of TGFα-induced cell proliferation ([3H]-methylthymidine incorporation); assay type: cell-based, Murine; conditions: induced by 2 × 10^-9 M TGFα; for % of thymidine incorporation: control 420 ± 30
Description: as §1, §2

apparent association constant for EGF [2] [M⁻¹]	Compound	cpm of iodinated anti-TGF α-KLH IgG bound to coated wells ([1]; inhibitor 10 ng/ml) [cpm]	cpm of iodinated anti-TGF α-KLH IgG bound to coated wells ([1]; inhibitor 100 ng/ml) [cpm]	cpm of iodinated anti-TGF α-KLH IgG bound to coated wells ([1]; inhibitor 1000 ng/ml) [cpm]	% Enhancement of thymidine incorporation, second figure relative to control = 100 (ratio of TGF α fragment/EGF counts per minute) ([3]; peptide 10^-5 M) [%]	% Enhancement of thymidine incorporation ([3]; peptide 10^-5 M) [%]	% Enhancement of thymidine incorporation, second figure relative to control = 100 (ratio of TGF α fragment/EGF counts per minute) ([3]; peptide 10^-6 M) [%]	% Enhancement of thymidine incorporation ([3]; peptide 10^-6 M) [%]	% Enhancement of thymidine incorporation, second figure relative to control = 100 (ratio of TGF α fragment/EGF counts per minute) ([3]; peptide 10^-7 M) [%]	other results
–	EGF: epidermal growth factor	8800 ± 400	8200 ± 500	7600 ± 800	–	–	–	–	–	cpm of iodinated anti-TGF α-KLH IgG bound to coated wells ([1]; inhibitor 10,000 ng/ml): 7800 ± 600 cpm
1.5e+10	CC(C)[C@@H]1NC(=O)CNC(=O)[C@H](C(C)C)NC(=O)[C@H](Cc2ccc(O)cc2)NC(=O)CNC(=O)[C@H](CO)NC(=O)[C@H](Cc2c[nH]cn2)NC(=O)[C@@H](N)CSSC[C@@H](C(=O)O)NC(=O)[C@H](CCCNC(=N)N)NC1=O [Peptide 1] (H-CHSGYVGVRC-OH; disulfide 1-10)	–	–	–	70	265 ± 15	95	360 ± 20	103	% of thymidine incorporation, second figure relative to control = 100 ([4]; peptide 10^-5 M): 79%; % of thymidine incorporation ([4]; peptide 10^-5 M): 330 ± 10%; % of thymidine incorporation, second figure relative to control = 100 ([4]; peptide 10^-6 M): 95%; % of thymidine incorporation ([4]; peptide 10^-6 M): 400 ± 20%; % of thymidine incorporation, second figure relative to control = 100 ([4]; peptide 10^-7 M): 95%; % of thymidine incorporation ([4]; peptide 10^-7 M): 400 ± 20%
1.5e+10	CC(C)[C@@H]1NC(=O)[C@H](Cc2ccc(O)cc2)NC(=O)CNC(=O)[C@H](CO)NC(=O)[C@H](Cc2c[nH]cn2)NC(=O)[C@@H](N)CSSC[C@@H](C(=O)O)NC(=O)[C@H](CCCNC(=N)N)NC(=O)[C@H](C)NC(=O)CNC1=O [Peptide 2] (H-CHSGYVGARC-OH; disulfide 1-10)	–	–	–	64	245 ± 25	97	370 ± 15	100	% Enhancement of thymidine incorporation ([3]; peptide 10^-7 M): 380 ± 20%
–	H-Cys-His-Ser-Gly-Tyr-Val-Gly-Val-Arg-Cys-OH (H-CHSGYVGVRC-OH; disulfide 1-10 (inferred)) [TGFα fragment peptide]	–	–	–	–	–	–	–	–	extrapolated saturation binding of 125I-EGF ([2]; one hour, 0.51±0.03 nM in its absence): 0.5 ± 0.02 nM
–	TGFα: native human transforming growth factor alpha, used as inhibitor in the radioimmunoassay	7600 ± 400	5100 ± 700	3800 ± 400	–	–	–	–	–	cpm of iodinated anti-TGF α-KLH IgG bound to coated wells ([1]; inhibitor 1 ng/ml): 8600 ± 800 cpm
